Data taken from patent US6316421A, “Pentaerythritol lipid derivatives and nuleic-acid complexes” (The Regents of the University of California, priority 2000, dated 2001).

Legend:
NIH 3T3 cells [1] = assay: Relative cytotoxicity by MTS assay (CellTiter 96) of lipoplex-treated NIH 3T3 cells; assay type: cell-based; conditions: 1:1 lipid:DOPE, 2:1 charge ratio, FIG. 2
Description: (§1) FIG. 2 is a bar graph showing luciferase transfection results as the mean (n=4) and standard deviation of total luciferase light units (RLU, left vertical axis) obtained from NIH 3T3 cells lysed after administration of […] of DNA. Relative cytotoxicity, depicted by the solid line, is plotted according to the right vertical axis, calculated as described in Example 3. With the exception of DOTAP, 1:1 cationic lipid:DOPE liposomes at a 2:1 molar charge ratio (lipid charge to DNA phosphate charge) were used for lipoplex formation. DOTAP was used without a co-lipid.
(§2) Cell viability was determined by evaluating the […] dehydrogenase activity of post-transfected cells prior to lysis using the CellTiter 96 Aqueous Non-Radioactive Cell Proliferation Assay (Promega). The tetrazolium salt solution (Owen's Reagent; […]) was added to each well and the 24 well plate was then gently agitated to ensure complete mixing. After incubation for an additional 3-4 h, each well was assayed for formazan production by removing an aliquot of the medium and diluting with 9 parts phosphate buffered saline (PBS) solution. The dilution was conducted in a 1.5 mL methylacrylate UV/VIS disposable cell, and the relative amount of formazan was determined by taking absorbance reading at 490 nm using PBS as the reference. The mean (n=4) of the absorbance values was calculated and compared to the mean absorbance value for non-transfected cells. The final results were expressed in terms of relative cytotoxicity. Relative cytotoxicity was calculated by subtracting from one the ratio of mean absorbance value for transfected cells over mean absorbance value for untreated cells. A relative cytotoxicity value of zero implies no difference from untreated cells, no measurable cytotoxicity. The maximum value of one implies total cell death for treated cells, no measurable formazan production indicating significant toxicity. Negative values may reflect enhanced formazan production as a consequence of cell growth relative to untreated cells.
(§3) To test whether (DMTM(Gly)) and (DOTM(GLY)) ameliorate lipid-induced cytotoxicity, a cell viability assay was performed. The relative cytotoxicity for these lipids and the popular transfection lipids DOTAP and DC-Chol was determined by measuring the […] dehydrogenase activity for lipoplex-treated cells. The comparative assay was performed using NIH 3T3 and 16HBE14o- cells, and the results are plotted in FIGS. 2 and 3, respectively. A requisite for evaluation of cytotoxicity is the concurrent determination of relative transfection activity. Thus, the cationic lipids were evaluated for relative cytotoxicity immediately prior to determination of luciferase activity. […]

NIH 3T3 cells [2] = assay: Luciferase transfection (pGL3-control plasmid), NIH 3T3 cells; assay type: cell-based; conditions: for facilitating the intracellular delivery of plasmid DNA: Example 2 conclusion, luciferase plasmid
Description: FIG. 1 is a bar graph showing the transfection activity of DMTM(Gly):DOPE liposomes as a function of the mole percent DOPE. DNA transfections were performed using NIH 3T3 cells. Lipoplexes were formulated at a 2:1 molar charge ratio (lipid charge to DNA phosphate charge). The values shown are the mean (n=4) and standard deviation of total luciferase light units (RLU) obtained from cells lysed after administration of […] DNA.
as §1
(§4) a.) Liposome Formulation.
(§5) The cationic lipid […] and DOPE […] were added as chloroform solutions to a 1.9 mL sample vial. The chloroform was evaporated using a stream of dry argon at room temperature. The resulting thin lipid films were placed under vacuum for 2-3 h to ensure that all traces of solvent were removed. Sterile water (1.0 mL) was then added to hydrate the lipid thin films, and the resultant suspension was vigorously mixed (vortex) at room temperature with occasional warming in a 60° C. water bath. The resultant 1.0 mM lipid suspension was used within 2 h of hydration.
(§6) NIH 3T3 cells were obtained from ATCC (CRL 1658) and grown in Dulbecco's Modified Eagle's Medium (DMEM; GIBCO) with 10% fetal calf serum (GIBCO) in a humidified 10% CO2 incubator at 37° C. Human bronchial epithelial cells (16HBE14o-) were cultured in Eagle's modified essential medium (MEM; GIBCO) supplemented with 10% fetal bovine serum (GIBCO), 1% glutamine (GIBCO), 1% penicillin and streptomycin (GIBCO), and grown in a 5% humidified CO2 incubator at 37° C. Both cell lines were subcultured into sterile, untreated flasks.
The NIH 3T3 cells were plated at 50,000 cells per well on a standard 24 well plate (Corning, Corning, N.Y.) 24 h prior to transfection. Cells were approximately 80% confluent at the time of transfection. The HBE cells were plated at 50,000 cells/well on a 24 well tissue culture plate coated with fibronectin, vitrogen (collagen), and bovine serum albumin as previously described (Gruenert, D. C., Basbaum C. B., and Widdicombe J. H. (1990) In Vitro Cell Dev Biol., 26, 411-418.) and were transfected as subconfluent monolayers 24 h prior to transfection. The growth media was removed via aspiration and each well was washed once with 0.5 mL buffered saline and overlaid with only MEM.
Cationic lipid-DNA complexes were prepared 15-40 mins prior to transfection. The pGL3-control vector encoding for firefly luciferase (Promega, Madison, Wis.) was. slowly added to a diluted (DMEM or MEM) quantity of the cationic lipid:DOPE suspension in a polystyrene tube. (Falcon #2058), and the lipid-DNA complex was diluted to a final volume of […]. Typically (e.g. using DOTAP), […] of the lipid suspension was used to complex […] of the plasmid DNA, yielding a 2:1 cationic lipid:DNA phosphate molar ratio. Immediately on DNA addition, the suspension was vortexed and allowed to incubate for 15 min at room temperature. A […] aliquot of the resultant lipid-DNA suspension was added to each well […]. The treated cells were then incubated for 4 h at 37° C. Control wells were treated with […] of medium without supplement. At this time, […] of the appropriate growth media including 10% FCS was added to all wells and the cells cultured for 48 h prior to lysis and analysis.
(§7) Relative luciferase activity was determined by using the Enhanced Luciferase Assay Kit and a Moonlight 2010 luminometer (Analytical Luminescence Laboratories, Sparks, Md.). […]

16HBE14o- cells = assay: Luciferase transfection (pGL3-control plasmid), 16HBE14o- cells; assay type: cell-based, Human; conditions: FIG. 3
Description: as §1, with “FIG. 3” for “FIG. 2”, “from 16HBE14o-” for “from NIH 3T3”
as §4, §5
as §6, with “Both cell lines were subcultured into sterile, untreated flasks.” left out
Cationic lipid-DNA complexes were prepared 15-40 mins prior to transfection. The pGL3-control vector encoding for firefly luciferase (Promega, Madison, Wis.) was. slowly added to a diluted (DMEM or MEM) quantity of the cationic lipid:DOPE suspension in a polystyrene tube. […]
as §7

[3] = test system: NIH 3T3 and 16HBE14o- cells; assay: Phase contrast microscopy of cells transfected with GFP lipoplexes; assay type: cell-based; conditions: for cell morphology by phase contrast: 48 h post-transfection, cell line not stated
Description: (§8) Fluorescence experiments were conducted by transfecting the pEGFP-C1 C-Terminal protein fusion vector (Clontech, Palo Alto, Calif.) into NIH 3T3 and 16HBE14o- cells. The transfection protocol was identical to that of luciferase expression experiments in Example 1. Cells were grown for 48 h post-transfection, fixed with 3.7% formaldehyde, and viewed on a Zeiss ICM 405 inverted microscope with high resolution long-working distance objectives. Cells were photographed on the fluorescein channel and with phase contrast optics with a 40× water objective, using T-Max 400 (Kodak, Rochester, N.Y.) film.
(§9) To probe relationships between cellular uptake, expression, and cytotoxicity, a transfection study was conducted using the GFP reporter gene. Fluorescent microscopy of cells treated with GFP-encoded plasmid is a sensitive tool for determining the occurrence of transgene expression. […] Thus, the onset of cytotoxicity precedes gene expression.

[4] = test system: NIH 3T3 and 16HBE14o- cells; assay: GFP reporter gene transfection (pEGFP-C1), fluorescence microscopy; assay type: cell-based; conditions: 48 h post-transfection
Description: as §8, §9

[5] = Relative cytotoxicity by MTS assay (CellTiter 96) of lipoplex-treated NIH 3T3 cells; assay type: cell-based; conditions: mouse, nih 3t3 cells, 1:1 lipid:DOPE, 2:1 charge ratio, FIG. 2, read-out: treated cells impaired
Description: as §1, §2, §3

SMILES	cytotoxic response (MTS relative cytotoxicity) (NIH 3T3 cells [1])	facilitating the intracellular delivery of plasmid DNA (NIH 3T3 cells [2])	transfection activity compared with DOTAP and DC-Chol (NIH 3T3 cells [2]; NIH 3T3, 1:1 lipid:DOPE, FIG. 2)	transfection activity on co-formulation with DOPE (DOPE titration) (NIH 3T3 cells [2]; NIH 3T3, equimolar lipid and DOPE, 2:1 molar charge ratio, FIG. 1)	effect of larger percentage DOPE on transfection activity (NIH 3T3 cells [2]; NIH 3T3, larger percentage DOPE than equimolar, FIG. 1)	transfection activity compared with DOTAP and DC-Chol (16HBE14o- cells; 1:1 lipid:DOPE)	cell morphology by phase contrast [3]	lipid:DOPE optimization results compared with DMTM(Gly) (NIH 3T3 cells [2]; DOPE titration, compared with DMTM(Gly):DOPE)	expression in comparison to DOTAP and DC-Cholesterol (NIH 3T3 cells [2]; NIH 3T3, 1:1 lipid:DOPE (DOTAP without co-lipid), FIG. 2)	transfection activity compared with dimyristoyl analog (NIH 3T3 cells [2]; NIH 3T3, 1:1 lipid:DOPE, 2:1 charge ratio, FIG. 2)	expression in comparison to DOTAP and DC-Cholesterol (16HBE14o- cells; 1:1 lipid:DOPE (DOTAP without co-lipid))	transfection activity compared with dimyristoyl analog (16HBE14o- cells; 1:1 lipid:DOPE, 2:1 charge ratio)	GFP gene transfer (presence of fluorescent cells) [4]	cytotoxicity [5] [%]	vacuolization compared with DOTM(Gly), DOTAP, or DMTM(Gly) ([3]; phase contrast)
CCCCCCCCCCCCCC(=O)OCC(COC(=O)CCCCCCCCCCCCC)(COC(=O)C[N+](C)(C)C)COC(=O)C[N+](C)(C)C [DMTM(Gly), dimyristoyl bis(N,N,N-trimethylglycyl) tetraester]	did not induce a cytotoxic response	capable of facilitating the intracellular delivery of plasmid DNA	transfection activities similar to DOTAP and DC-Chol	near optimal transfection activity	only negligible improvement	transfection activities similar to DOTAP and DC-Chol									
CCCCCCCC/C=C\CCCCCCCC(=O)OCC(COC(=O)CCCCCCC/C=C\CCCCCCCC)(COC(=O)C[N+](C)(C)C)COC(=O)C[N+](C)(C)C [DOTM(Gly), dioleoyl bis (N,N,N-trimethylglycyl) tetraester]	did not induce a cytotoxic response	capable of facilitating the intracellular delivery of plasmid DNA					normal cellular morphology	similar	reaching an order of magnitude greater expression	greater transfection activity than the dimyristoyl analog	reaching an order of magnitude greater expression	greater transfection activity than the dimyristoyl analog	active in facilitating gene transfer		
CC(C)CCC[C@@H](C)[C@H]1CC[C@H]2[C@@H]3CC=C4C[C@@H](OC(=O)NCCN(C)C)CC[C@]4(C)[C@H]3CC[C@]12C [DC-Chol, 3,β-(N-(N',N'-dimethylaminoethane)-carbamoyl)cholesterol, reference compound]	significantly more cytotoxic						dense regions of large vacuoles						active in facilitating gene transfer	~60	significantly greater vacuolization
